Measurements: article PMC7395068, “The evolution of strategies to minimise the risk of human drug-induced liver injury (DILI) in drug discovery and development” (Archives of Toxicology, 2020)
Like-named read-outs stand apart in the source and are kept apart here.

Columns and labels:
[1] = cited from earlier work
[2] = test system: HepG2 cells, primary human hepatocytes; settings: In vitro Assay; ref Garside 2014; cited from earlier work
[3] = plasma free fraction; cited from earlier work
PHH = settings: cited from earlier work
[4] = test system: isolated mouse liver mitochondria; settings: In vitro Assay; ref Porceddu 2012; cited from earlier work
[5] = Plasma free fraction (fu) and unbound Cmax (Cmax,u); format: in vitro ADME, human; settings: unbound plasma Cmax
Experimental: The prediction of DILI severity was evaluated further using the 3D combined HCI assays using plasma-free fraction. The majority of fu values were obtained from literature, when unavailable in-house prediction was utilised. Unbound plasma Cmax concentrations (Cmax,u) were derived by multiplying total plasma Cmax with the corresponding free fraction (fu) for each compound.

hLiMTs [6] = assay: Combined HCI (HCS) and cellular ATP 3D assay in hLiMTs; settings: for AC50 / minimal effective concentration: Homo sapiens; for DILI prediction hLiMTs (HCS-MEC): Microtissue model structural based (HCI), combined HCS and ATP, MEC < 25 × Cmax.tot cut-off; for hLiMTs <25x Avg Cmax ATP / hLiMTs <100x Avg Cmaxu ATP: ATP endpoint; for hLiMTs <25x Avg Cmax ATP / hLiMTs <25x Avg Cmax HCS / hLiMTs <25x Avg Cmax All: cut-off <25x Avg Cmax; for hLiMTs <100x Avg Cmaxu ATP / hLiMTs <100x Avg Cmaxu HCS / hLiMTs <100x Avg Cmaxu All: cut-off <100x Avg Cmaxu; for hLiMTs <25x Avg Cmax HCS / hLiMTs <100x Avg Cmaxu HCS: HCS endpoints; for hLiMTs <25x Avg Cmax All: all endpoints (ATP and HCS); for hLiMTs Cmax max All / hLiMTs Cmax min All / hLiMTs <10 uM All / hLiMTs <100x Avg Cmaxu All: all endpoints; for hLiMTs Cmax max All: Cmax max used; for hLiMTs Cmax min All: Cmax min used; for hLiMTs <10 uM All: cut-off <10 uM
Experimental: 3D spheroid models consisting of either primary human hepatocytes with non-parenchymal cells (hLiMT’s) or HepaRG cells (HepaRG spheroids) were assessed for size (MS), oxidative stress (OS), MMP, mitochondrial mass (MM), GSH and cellular ATP content following drug exposure. Fluorescent images are acquired using the confocal mode of an ArrayScan™ XTI HCI reader (ThermoScientific) following which cellular ATP was measured using 3D CellTiter-Glo (Promega).

hLiMTs [7] = settings: cited from earlier work
[8] = test system: HepG2 C3A spheroid, BSEP, Glu/Gal in HepG2 cells, bioactivation; settings: cited from earlier work
[9] = cited from earlier work; remark: listed apart in the source
HepaRG spheroids = assay: Combined HCI (HCS) and cellular ATP 3D assay in HepaRG spheroids; settings: for HepaRG <25x Avg Cmax ATP / HepaRG <100x Avg Cmaxu ATP: ATP endpoint; for HepaRG <25x Avg Cmax ATP / HepaRG <25x Avg Cmax HCS / HepaRG <25x Avg Cmax All: cut-off <25x Avg Cmax; for HepaRG <100x Avg Cmaxu ATP / HepaRG <100x Avg Cmaxu HCS / HepaRG <100x Avg Cmaxu All: cut-off <100x Avg Cmaxu; for HepaRG <25x Avg Cmax HCS / HepaRG <100x Avg Cmaxu HCS: HCS endpoints; for HepaRG <25x Avg Cmax All: all endpoints (ATP and HCS); for HepaRG Cmax max All / HepaRG Cmax min All / HepaRG <10 uM All / HepaRG <100x Avg Cmaxu All: all endpoints; for HepaRG Cmax max All: Cmax max used; for HepaRG Cmax min All: Cmax min used; for HepaRG <10 uM All: cut-off <10 uM; for AC50 / minimal effective concentration: Homo sapiens; for HepaRG <25x Avg Cmax ATP / HepaRG <100x Avg Cmaxu ATP / HepaRG <25x Avg Cmax HCS / HepaRG <100x Avg Cmaxu HCS / HepaRG <25x Avg Cmax All / HepaRG Cmax max All / HepaRG Cmax min All / HepaRG <10 uM All / HepaRG <100x Avg Cmaxu All / AC50 / minimal effective concentration: HepaRG; for DILI prediction HepaRG spheroids (HCS-MEC): Microtissue model structural based (HCI), combined HCS and ATP, MEC < 25 × Cmax.tot cut-off
[10] = test system: THLE or HepG2 cells, isolated mitochondria, BSEP; settings: cited from earlier work
[11] = ref Chen 2011; cited from earlier work
human hepatocytes = settings: cited from earlier work
PHH spheroids = settings: cited from earlier work
[12] = In vitro Assay, ref Proctor 2017
[13] = Modeled in vitro assays (cytotoxicity, mitochondrial dysfunction, BSEP), ref Aleo et al. 2019

Structure (SMILES): CCN(CC)CCNC(=O)c1c(C)[nH]c(/C=C2\C(=O)Nc3ccc(F)cc32)c1C [sunitinib]
- DILI severity category (Chen et al. [2016]) ([1]; LTKB DILIrank category, ref Chen et al. 2016): Most
- DILI severity category (Chen 2016) ([1]; human DILI classification, LTKB DILIrank, ref Chen et al. 2016): Most
- DILI severity category ([1]; human DILI severity, ref Chen et al.): Most
- DILI +VE (5-8), DILI -VE (-4) ([1]; ref Chen 2016): +VE
- DILI severity category ([1]; ref Chen 2016): vMost-DILI-Concern
- Cluster 1-6 +VE Assay [2]: +VE
- fu [3]: 0.050
- PHH/100xCmax, Proctor (2017) (PHH; 2D PHH, ATP, IC50 < 100 × Cmax.tot, ref Proctor et al. 2017): +VE (IC50 < 100 × Cmax.tot)
- PHH/100uM, Proctor (2017) (PHH; 2D PHH, ATP, IC50 threshold 100 µM, ref Proctor et al. 2017): +VE (IC50 threshold of 100 µM)
- PHH ATP <100uM (PHH; [12]): +VE (IC50 threshold of 100 µM)
- in vitro data EC2<=1x Cmax [4]: +VE
- in vitro data EC20<=2uM [4]: -VE
- Human plasma Cmax,u [5]: 3 nM
- AC50 (hLiMTs [6]; read-out: ATP endpoint AC50): 400 nM
- minimal effective concentration (hLiMTs [6]; read-out: ATP endpoint MEC): 0.347 µM
- AC50 (hLiMTs [6]; read-out: HCS endpoint AC50): 421 nM
- minimal effective concentration (hLiMTs [6]; read-out: HCS endpoint MEC): 0.157 µM
- DILI prediction hLiMTs (HCS-MEC) (hLiMTs [6]): +VE (MEC < 25 × Cmax.tot cut-off)
- hLiMTs <25x Avg Cmax ATP (hLiMTs [6]): +ve
- hLiMTs <100x Avg Cmaxu ATP (hLiMTs [6]): -ve
- hLiMTs <25x Avg Cmax HCS (hLiMTs [6]): +ve
- hLiMTs <100x Avg Cmaxu HCS (hLiMTs [6]): +ve (<100x Avg Cmaxu)
- hLiMTs <25x Avg Cmax All (hLiMTs [6]): +ve
- hLiMTs Cmax max All (hLiMTs [6]): +ve
- hLiMTs Cmax min All (hLiMTs [6]): +ve
- hLiMTs <10 uM All (hLiMTs [6]): +ve (<10 uM)
- hLiMTs <100x Avg Cmaxu All (hLiMTs [6]): +ve (<100x Avg Cmaxu)
- hLiMTs ATP <100uM (hLiMTs [7]; [12]): +VE (IC50 threshold of 100 µM)
- hLiMTs/100xCmax, Proctor (2017) (hLiMTs [7]; hLiMTs, ATP, IC50 < 100 × Cmax.tot, ref Proctor et al. 2017): +VE (IC50 < 100 × Cmax.tot)
- hLiMTs/100uM, Proctor (2017) (hLiMTs [7]; hLiMTs, ATP, IC50 threshold 100 µM, ref Proctor et al. 2017): +VE (IC50 threshold of 100 µM)
- Bayesian Machine Learning DILI prediction, Williams (2019) ([8]; Bayesian modeling, ref Williams et al. 2019): +VE
- Bayesian Machine Learning ([8]; In vitro Assay, ref Williams 2019): +VE
- Assigned DILI category ([9]; Chen et al. 2016 or literature alignment, ref Chen et al. 2016): 3
- In vivo DILI ([9]; ref Aleo 2019): +VE
- In vivo DILI ([9]; ref Garside 2014): +VE
- In vivo DILI ([9]; ref Porceddu 2012): +VE
- In vivo DILI ([9]; ref Proctor 2017): +VE
- In vivo DILI ([9]; ref Williams 2019): +VE
- HepaRG <25x Avg Cmax ATP (HepaRG spheroids): +ve
- HepaRG <100x Avg Cmaxu ATP (HepaRG spheroids): -ve
- HepaRG <25x Avg Cmax HCS (HepaRG spheroids): +ve
- HepaRG <100x Avg Cmaxu HCS (HepaRG spheroids): +ve (<100x Avg Cmaxu)
- HepaRG <25x Avg Cmax All (HepaRG spheroids): +ve
- HepaRG Cmax max All (HepaRG spheroids): +ve
- HepaRG Cmax min All (HepaRG spheroids): +ve
- HepaRG <10 uM All (HepaRG spheroids): +ve (<10 uM)
- HepaRG <100x Avg Cmaxu All (HepaRG spheroids): +ve (<100x Avg Cmaxu)
- AC50 (HepaRG spheroids; read-out: ATP endpoint AC50): 3.11 µM
- minimal effective concentration (HepaRG spheroids; read-out: ATP endpoint MEC): 1.1 µM
- AC50 (HepaRG spheroids; read-out: HCS endpoint AC50): 1.71 µM
- minimal effective concentration (HepaRG spheroids; read-out: HCS endpoint MEC): 0.281 µM
- DILI prediction HepaRG spheroids (HCS-MEC) (HepaRG spheroids): +VE (MEC < 25 × Cmax.tot cut-off)
- Partition Hybrid HRM Score ([10]; In vitro Assay, ref Aleo 2019): -VE
- Ro2 Hybrid HRM Score ([10]; In vitro Assay, ref Aleo 2019): -VE
- Partition Hybrid HRM Score ≥4, Aleo (2019) [10, 13]: +VE (Partition Hybrid HRM Score ≥4)
- Partition Hybrid HRM Score ≥8, Aleo (2019) [10, 13]: -VE
- Rule of Two hybrid HRM Score ≥3, Aleo (2019) [10, 13]: -VE
- Rule of Two hybrid HRM Score ≥8, Aleo (2019) [10, 13]: -VE
- DILI Score (FDA) (1-8) [11]: 8

Structure (SMILES): CCN(CC)CC#CCOC(=O)C(O)(c1ccccc1)C1CCCCC1 (stereo not drawn) [oxybutynin]
- DILI +VE (5-8), DILI -VE (-4) ([1]; in vivo): -VE
- DILI severity category (Chen et al. [2016]) ([1]; in vivo): No
- fu [3]: 0.030
- PHH ATP <100uM (PHH): -VE
- PHH/100uM, Proctor (2017) (PHH): -VE
- in vitro data EC2<=1x Cmax [4]: -VE
- Human plasma Cmax,u [5]: 1 nM
- AC50 (hLiMTs [6]; read-out: HCS endpoint AC50): 6060 nM
- minimal effective concentration (hLiMTs [6]; read-out: HCS endpoint MEC): 2.11 µM
- DILI prediction hLiMTs (HCS-MEC) (hLiMTs [6]): -VE
- hLiMTs <25x Avg Cmax ATP (hLiMTs [6]): -ve
- hLiMTs <100x Avg Cmaxu ATP (hLiMTs [6]): -ve
- hLiMTs <25x Avg Cmax HCS (hLiMTs [6]): -ve
- hLiMTs <100x Avg Cmaxu HCS (hLiMTs [6]): -ve
- hLiMTs <25x Avg Cmax All (hLiMTs [6]): -ve
- hLiMTs Cmax max All (hLiMTs [6]): -ve
- hLiMTs Cmax min All (hLiMTs [6]): -ve
- hLiMTs <10 uM All (hLiMTs [6]): +ve (<10 uM)
- hLiMTs <100x Avg Cmaxu All (hLiMTs [6]): -ve
- hLiMTs ATP <100uM (hLiMTs [7]): -VE
- hLiMTs/100uM, Proctor (2017) (hLiMTs [7]): -VE
- DILI in vitro assay prediction, Xu (2008) (human hepatocytes): -VE
- Structural based (HCI) (human hepatocytes): -VE
- Bayesian Machine Learning DILI prediction, Williams (2019) [8]: -VE
- Assigned DILI category ([9]; in vivo): 1
- In vivo DILI ([9]; in vivo): -VE
- HepaRG <25x Avg Cmax ATP (HepaRG spheroids): -ve
- HepaRG <100x Avg Cmaxu ATP (HepaRG spheroids): -ve
- HepaRG <25x Avg Cmax HCS (HepaRG spheroids): -ve
- HepaRG <100x Avg Cmaxu HCS (HepaRG spheroids): -ve
- HepaRG <25x Avg Cmax All (HepaRG spheroids): -ve
- HepaRG Cmax max All (HepaRG spheroids): -ve
- HepaRG Cmax min All (HepaRG spheroids): -ve
- HepaRG <10 uM All (HepaRG spheroids): -ve
- HepaRG <100x Avg Cmaxu All (HepaRG spheroids): -ve
- AC50 (HepaRG spheroids; read-out: ATP endpoint AC50): 28.5 µM
- minimal effective concentration (HepaRG spheroids; read-out: ATP endpoint MEC): 16.1 µM
- AC50 (HepaRG spheroids; read-out: HCS endpoint AC50): 64.5 µM
- minimal effective concentration (HepaRG spheroids; read-out: HCS endpoint MEC): 10.3 µM
- DILI prediction HepaRG spheroids (HCS-MEC) (HepaRG spheroids): -VE
- hLiMTs ATP <20 x Cmax (PHH spheroids; In vitro Assay, ref Vorrink 2018): -VE
- DILI in vitro assay prediction, Vorrink (2018) (PHH spheroids): -VE
- Rule of Two hybrid HRM Score ≥8, Aleo (2019) [10]: -VE
